One molecule from ChEMBL document CHEMBL1137881, “Synthesis of acyloxymethyl ester prodrugs of the transferable protein farnesyl transferase substrate farnesyl methylenediphosphonate” (Bioorg Med Chem Lett, 2004) can be followed below.

The target in this assay is Protein farnesyltransferase (Homo sapiens, UniProt P49354+P49356). The assay is described as follows: Inhibition of Farnesyltransferase. In kind it is protein-complex assay.

`CC(C)=CCC/C(C)=C/CC/C(C)=C/COP(=O)(O)CP(=O)(O)O` [FARNESYL METHYLENEDIPHOSPHONATE] returned an IC50 of 160 nM.

The IC50 is the concentration needed to halve the response being measured.
